Measurements as given in PubChem BioAssay (NCI).
“And” between values parts separate entries of the source, which are not always exact repeats. Equal entries are not always repeated.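 Briefly, cells in 96-well plates were exposed to five compound concentrations for 48 h, and endpoints were estimated by linear interpolation. GI50 = concentration required for 50% inhibition of growth. At the TGI there is no net growth.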

Key:
Experiment in all cases: NCI tumour cell line growth inhibition, 48 h
[1] = system: SR leukemia
[2] = system: KM12 colon
[3] = system: HOP-62 NSCLC
[4] = system: SNB-19 CNS
[5] = system: DU-145 prostate
[6] = system: BT-549 breast
[7] = system: MALME-3M melanoma
[8] = system: 786-0 renal
[9] = system: OVCAR-8 ovarian
[10] = system: MCF7 breast

`O=C(/C=C/CN1CCCCC1)Nc1cc2c(Nc3ccc(F)c(Cl)c3F)ncnc2cc1OCCOC(F)F` gave a GI50 [1] of 0.598 µM, a TGI [1] of 4.24 µM and a GI50 [2] of 2.44 µM. It also gave a TGI [2] of 9.01 µM, a GI50 [3] of 1.64 µM and a TGI [3] of 7.04 µM. It also gave a GI50 [4] of 1.94 µM, a TGI [4] of 13.5 µM and a GI50 [5] of 0.265 µM. The TGI [5] was 6.24 µM, the GI50 [6] was 1.97 µM and the TGI [6] was 8.62 µM. For the same molecule, the GI50 [7] was 1.18 µM, the TGI [7] was 2.91 µM and the GI50 [8] was 0.781 µM. For the same molecule, the TGI [8] was 6.38 µM, the GI50 [9] was 0.805 µM and the TGI [9] was 10.3 µM. It also gave a GI50 [10] of 1.35 µM and a TGI [10] of 10.3 µM.

`C[CH2][Ge]1([CH2]C)[CH2]CC2(CCN(CCCN(C)C)C2)C[CH2]1` was tested, and the GI50 [1] was 0.231 µM, the TGI [1] was 1.25 µM and the GI50 [2] was 1.83 µM and 10.2 µM. For the same molecule, the TGI [2] was 4.02 µM and 22.2 µM, the GI50 [3] was 0.949 µM and 4.87 µM and the TGI [3] was 1.89 µM and 9.25 µM. For the same molecule, the GI50 [4] was 2.21 µM and 4.46 µM, the TGI [4] was 5.57 µM and 9.89 µM and the GI50 [5] was 2.48 µM and 3.09 µM. For the same molecule, the TGI [5] was 6.64 µM and 8.84 µM, the GI50 [6] was 1.69 µM and the TGI [6] was 3.23 µM. The GI50 [7] was 1.05 µM and 2.65 µM, the TGI [7] was 1.96 µM and 4.33 µM and the GI50 [8] was 1.43 µM. For the same molecule, the TGI [8] was 2.87 µM, the GI50 [9] was 1.7 µM and 1.25 µM and the TGI [9] was 4.05 µM and 1.73 µM. The GI50 [10] was 0.99 µM and 2.42 µM and the TGI [10] was 2.69 µM and 4.05 µM.

`C=C1C(=O)O[C@H]2[C@H]1CC/C(Cn1cc(CNC(=O)c3cc4ccccc4[nH]3)nn1)=C\CC[C@@]1(C)O[C@@H]21` gave a GI50 [1] of 2.69 µM, a TGI [1] of 25.7 µM and a GI50 [2] of 11.4 µM. The TGI [2] was 26.7 µM, the GI50 [3] was 13.3 µM and the TGI [3] was 31.3 µM. For the same molecule, the GI50 [4] was 7.44 µM, the TGI [4] was 20.4 µM and the GI50 [5] was 4.07 µM. The TGI [5] was 15.1 µM, the GI50 [6] was 4.09 µM and the TGI [6] was 16.5 µM. It also gave a GI50 [7] of 1.75 µM, a TGI [7] of 3.55 µM and a GI50 [8] of 2.96 µM. It also gave a TGI [8] of 9.61 µM, a GI50 [9] of 4.69 µM and a TGI [9] of 17.2 µM. It also gave a GI50 [10] of 2.94 µM and a TGI [10] of 15.4 µM.

Work on `Cn1cc(C2=C(c3cn(CCCSC(=N)N)c4ccccc34)C(=O)NC2=O)c2ccccc21` yielded a GI50 [1] of 0.585 µM, a TGI [1] of 1.69 µM and a GI50 [2] of 2.07 µM. For the same molecule, the TGI [2] was 5.97 µM, the GI50 [3] was 2.36 µM and the TGI [3] was 7.39 µM. It also gave a GI50 [4] of 1.4 µM, a TGI [4] of 8.99 µM and a GI50 [5] of 4.78 µM. The TGI [5] was 12.5 µM, the GI50 [6] was 4.83 µM and the TGI [6] was 10.8 µM. The GI50 [7] was 3.84 µM, the TGI [7] was 8.34 µM and the GI50 [8] was 4.71 µM. The TGI [8] was 10.9 µM, the GI50 [9] was 4 µM and the TGI [9] was 11.4 µM. It also gave a GI50 [10] of 0.799 µM and a TGI [10] of 3 µM.

Work on `O=C(NC(c1ccccc1)C(O)C(=O)OCc1ccc2c(c1)C(=O)c1ccccc1C2=O)c1ccccc1` (stereo not drawn) yielded a TGI [1] greater than 88.3 µM, a TGI [2] greater than 97.4 µM and a TGI [3] of 9.82 µM. The TGI [4] was 18.3 µM, the TGI [5] was greater than 100 µM and the TGI [6] was greater than 100 µM. The TGI [7] was 37.9 µM, the TGI [8] was 6.4 µM and the TGI [9] was 41 µM. It also gave a TGI [10] greater than 100 µM.

In the case of `Oc1ccc(-c2nc(-c3ccc4oc5ccc(-c6[nH]c(-c7ccc(O)cc7)nc6-c6ccccc6)cc5c4c3)c(-c3ccccc3)[nH]2)cc1`, the GI50 [1] is reported as 1.98 µM, the TGI [1] is reported as 5.17 µM and the GI50 [2] is reported as 2.88 µM. It also gave a TGI [2] of 7.92 µM, a GI50 [3] of 7.62 µM and a TGI [3] of 42.3 µM. It also gave a GI50 [4] of 19.1 µM, a TGI [4] of 83.5 µM and a GI50 [5] of 4.83 µM. For the same molecule, the TGI [5] was 20.6 µM, the GI50 [6] was 18.8 µM and the TGI [6] was 58.2 µM. It also gave a GI50 [7] of 9.07 µM, a TGI [7] of 68 µM and a GI50 [8] of 5.75 µM. The TGI [8] was 29.8 µM, the GI50 [9] was 2.23 µM and the TGI [9] was 5.32 µM. It also gave a GI50 [10] of 2.99 µM and a TGI [10] of 73.9 µM.

For `Cn1c([N+](=O)[O-])cnc1/C=C1\Oc2ccc(Cl)cc2C1=O`, the GI50 [1] was 0.0676 µM, the GI50 [2] was 0.36 µM and the TGI [2] was 1.47 µM. The GI50 [3] was 1.6 µM, the TGI [3] was 4.78 µM and the GI50 [4] was 1.77 µM. It also gave a TGI [4] of 6.95 µM, a GI50 [5] of 0.402 µM and a TGI [5] of 1.32 µM. For the same molecule, the GI50 [6] was 1.2 µM, the TGI [6] was 4.99 µM and the GI50 [7] was 1.42 µM. For the same molecule, the TGI [7] was 4.78 µM, the GI50 [8] was 0.942 µM and the TGI [8] was 3.39 µM. The GI50 [9] was 0.33 µM, the GI50 [10] was 0.485 µM and the TGI [10] was 4.42 µM.

`COc1ccc(/C=C2\CN(Cc3cn(CCCNc4ccnc5cc(Cl)ccc45)nn3)C/C(=C\c3ccc(OC)cc3)C2=O)cc1` showed a GI50 [1] of 1.69 µM, a TGI [1] of 7.47 µM and a GI50 [2] of 1.66 µM. For the same molecule, the TGI [2] was 3.39 µM, the GI50 [3] was 19.4 µM and the TGI [3] was 35.5 µM. It also gave a GI50 [4] of 15.7 µM, a TGI [4] of 36.1 µM and a GI50 [5] of 1.81 µM. It also gave a TGI [5] of 3.3 µM, a GI50 [6] of 3.78 µM and a TGI [6] of 12.9 µM. It also gave a GI50 [7] of 2.09 µM, a TGI [7] of 5.37 µM and a GI50 [8] of 14.3 µM. The TGI [8] was 30.3 µM, the GI50 [9] was 2.06 µM and the TGI [9] was 5.64 µM. The GI50 [10] was 2.01 µM and the TGI [10] was 10.1 µM.

In the case of `Cc1nn(-c2ccccc2)c2ncc3c(c12)C(=O)N(Cc1ccccc1)C3=O`, the GI50 [1] is reported as 5.86 µM, the TGI [1] is reported as greater than 100 µM and the GI50 [2] is reported as greater than 100 µM. The TGI [2] was greater than 100 µM, the GI50 [3] was 3.73 µM and the TGI [3] was 13.8 µM. The GI50 [4] was 12.7 µM, the TGI [4] was greater than 100 µM and the GI50 [5] was 72.2 µM. It also gave a TGI [5] greater than 100 µM, a GI50 [6] of 4.23 µM and a TGI [6] of 38.6 µM. For the same molecule, the GI50 [7] was 5.24 µM, the TGI [7] was greater than 100 µM and the GI50 [8] was 1.94 µM. The TGI [8] was 5.12 µM, the GI50 [9] was 5.14 µM and the TGI [9] was greater than 100 µM. It also gave a GI50 [10] greater than 100 µM and a TGI [10] greater than 100 µM.

`CN(C)c1ccc(/C=C/C(=O)c2ccc(Nc3nc(Nc4ccc(F)cc4)nc(Nc4ccc(Cl)cc4)n3)cc2)cc1` showed a GI50 [1] of 1.06 µM, a TGI [1] of 3.67 µM and a GI50 [2] of 5.75 µM. It also gave a TGI [2] of 23.2 µM, a GI50 [3] of 9.42 µM and a TGI [3] of 28.3 µM. For the same molecule, the GI50 [4] was 17.1 µM, the TGI [4] was greater than 100 µM and the GI50 [5] was 5.5 µM. It also gave a TGI [5] of 27 µM, a GI50 [6] of 7.39 µM and a TGI [6] of 55.7 µM. The GI50 [7] was 10.7 µM, the TGI [7] was 33.8 µM and the GI50 [8] was 2.71 µM. The TGI [8] was 14.1 µM, the GI50 [9] was 1.99 µM and the TGI [9] was 15.1 µM. It also gave a GI50 [10] of 2.61 µM and a TGI [10] of 21.5 µM.

`Oc1c(Br)cc(Br)c2cccnc12` was tested, and the GI50 [1] was 3.07 µM, the TGI [1] was 13.7 µM and the GI50 [2] was 4.17 µM. For the same molecule, the TGI [2] was 23.4 µM, the GI50 [3] was 3.57 µM and the TGI [3] was 30.8 µM. It also gave a GI50 [4] of 3.99 µM, a TGI [4] greater than 100 µM and a GI50 [5] of 3.72 µM. The TGI [5] was 40.3 µM, the GI50 [6] was 4 µM and the TGI [6] was greater than 100 µM. It also gave a GI50 [7] of 3.21 µM, a TGI [7] of 19 µM and a GI50 [8] of 2.52 µM. The TGI [8] was 5.91 µM, the GI50 [9] was 3.75 µM and the TGI [9] was greater than 100 µM. The GI50 [10] was 4.48 µM and the TGI [10] was greater than 100 µM.

Work on `COc1cc(OC)c(-c2oc3ccccc3c(=O)c2O)c(OC)c1` yielded a TGI [1] greater than 100 µM, a TGI [2] greater than 100 µM and a TGI [3] greater than 31.5 µM. It also gave a TGI [4] greater than 100 µM, a TGI [5] greater than 100 µM and a TGI [6] greater than 100 µM. The TGI [7] was 98.3 µM, the TGI [8] was greater than 100 µM and the TGI [9] was greater than 100 µM. The TGI [10] was greater than 100 µM.

`Cc1ccc(SCN2CCCCC2)cc1` (tested in a mixture with another compound) showed a TGI [1] of 25.6 µM, a TGI [2] of 26.5 µM and a TGI [3] of 37.7 µM. For the same molecule, the TGI [4] was 49.9 µM, the TGI [5] was 28.1 µM and the TGI [6] was 15 µM. For the same molecule, the TGI [7] was 31.3 µM, the TGI [8] was 29.9 µM and the TGI [9] was greater than 100 µM. The TGI [10] was 59.4 µM.
